From PubChem BioAssay (NCI)
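1) Cells in 96-well plates. 2) Compound, 48 h, 5 concentrations. 3) Linear interpolation between surrounding doses. 4) Unreached endpoint = highest concentration. At the GI50, growth is halved. TGI: total growth inhibition.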

Assays:
Experiment in all cases: growth of human tumour cells (NCI), 48 h
HCT-15 colon = test system: HCT-15 colon
OVCAR-3 ovarian = test system: OVCAR-3 ovarian
SF-268 CNS = test system: SF-268 CNS
SK-MEL-2 melanoma = test system: SK-MEL-2 melanoma
A498 renal = test system: A498 renal
M14 melanoma = test system: M14 melanoma
KM12 colon = test system: KM12 colon
NCI/ADR-RES ovarian = test system: NCI/ADR-RES ovarian
MDA-N = test system: MDA-N
HOP-92 NSCLC = test system: HOP-92 NSCLC

Structure (SMILES)	TGI (HCT-15 colon) [µM]	TGI (OVCAR-3 ovarian) [µM]	TGI (SF-268 CNS) [µM]	TGI (SK-MEL-2 melanoma) [µM]	TGI (A498 renal) [µM]	TGI (M14 melanoma) [µM]	TGI (KM12 colon) [µM]	TGI (NCI/ADR-RES ovarian) [µM]	TGI (MDA-N) [µM]	TGI (HOP-92 NSCLC) [µM]	GI50 (OVCAR-3 ovarian) [µM]	GI50 (HOP-92 NSCLC) [µM]	GI50 (SF-268 CNS) [µM]	GI50 (SK-MEL-2 melanoma) [µM]	GI50 (A498 renal) [µM]	GI50 (NCI/ADR-RES ovarian) [µM]	GI50 (HCT-15 colon) [µM]	GI50 (M14 melanoma) [µM]	GI50 (KM12 colon) [µM]
CC(C(O)c1ccccc1)[N+](=O)[O-] (stereo unspecified)	43.4	17.3	95.5	39	36.3	72	50.6	93.1	–	–	–	–	–	–	–	–	–	–	–
CCOC(=O)C1CCCC1S(=O)(=O)c1ccc(C)cc1 (stereo unspecified)	> 100	> 100	> 100	–	> 100	> 100	> 100	> 100	> 100	> 100	–	–	–	–	–	–	–	–	–
O=C(/C=C/c1ccsc1)c1ccc(Cl)s1	> 100	–	> 100	> 100	> 100	> 100	35.9	> 100	> 100	–	–	–	–	–	–	–	–	–	–
COc1ccc(C2c3c(-c4ccccc4)nn(-c4ccccc4)c3Oc3ncn(N)c(=N)c32)cc1OC (stereo unspecified)	4.06	2.95	10.4	3.51	26	4.17	3.33	6.66	–	11	–	–	–	–	–	–	–	–	–
O=C(O)c1ccc(/C=N\N(CCO)C2=NCCN2)cc1	> 100	> 100	> 100	> 100	–	> 100	> 100	–	> 100	> 100	–	–	–	–	–	–	–	–	–
COc1cc(OC)c(NC2=NCCO2)cc1Cl	> 100	> 100	> 100	36.3	81.5	97.8	39.1	91.7	32.3	–	–	–	–	–	–	–	–	–	–
CCC(=O)n1c(=O)n(-c2ccc([N+](=O)[O-])cc2)c(=O)n1C(=O)CC	> 100	> 100	> 100	> 100	–	> 100	> 100	> 100	> 100	–	–	–	–	–	–	–	–	–	–
O=C(/C=C\c1ccc(OCCCCCC[P+](c2ccccc2)(c2ccccc2)c2ccccc2)cc1)c1ccc2c(c1)OCCO2	–	1.61	3.19	3.9	1.95	–	–	> 100	–	2.79	0.423	0.487	0.585	1.41	0.376	4.31	–	–	–
CN(c1ccccc1Cl)S(=O)(=O)c1ccccc1	> 100	> 100	> 100	> 100	–	> 100	> 100	> 100	> 100	–	–	–	–	–	–	–	–	–	–
Cc1cc(C)c(N)c(C)c1N	> 100	> 100	> 100	> 100	> 100	> 100	> 100	–	–	> 100	–	–	–	–	–	–	–	–	–
CCCCCCCCCCOC1C(C(C)OCCCN(C)C)OC2OC3(CCCCC3)OC21 (stereo unspecified)	17.5	29.1	30.5	30.4	–	10.2	–	32.2	21.8	16.3	–	–	–	–	–	–	–	–	–
O=C(NN1C(=O)C(Cl)C1c1ccc([N+](=O)[O-])cc1)c1ccccc1O (stereo unspecified)	–	> 100	> 100	> 100	–	> 100	> 100	–	–	> 100	–	–	–	–	–	–	–	–	–
CN(C)S(=O)(=O)c1cccc(-c2nc3sc4c(c3c(=O)[nH]2)CCCC4)c1	> 100	–	> 100	–	–	> 100	–	> 100	–	–	–	–	3.24	–	–	2.83	> 100	> 100	–
CCOC(=O)/C(=C\NC#N)c1nc2ccccc2[nH]1	> 100	> 100	> 100	–	> 100	> 100	> 100	> 100	> 100	> 100	–	–	–	–	–	–	–	–	–
CCOC(=O)C1CCn2c(nc3c(=O)n(C)c(=O)n(C)c32)S1 (stereo unspecified)	> 100	> 100	> 100	> 100	–	> 100	–	–	–	–	–	–	–	–	–	–	–	–	–
CCNC(=O)CCCCC(=O)c1c(C)[nH]c(/C=C2\N=C(c3ccc[nH]3)C=C2OC)c1C	4.4	3.67	6.52	7.44	21	7.13	4.79	10.8	–	9.69	1.85	2.04	2.41	3.14	8.19	2.94	1.83	2.68	2.17
Nc1ccc(S(=O)(=O)c2ccc(N=[N+]([O-])c3ccc(S(=O)(=O)c4ccc(N)cc4)cc3)cc2)cc1	> 100	> 56	> 45.9	> 94.2	> 85.1	> 100	> 100	> 100	–	38.4	–	–	–	–	–	–	–	–	–
Cc1ccc(C(=O)/C=C/N2CCN(c3cccc(C(F)(F)F)c3)CC2)cc1	29.5	28.5	36.8	34.8	33.3	30.5	38.1	33	–	> 100	–	–	–	–	–	–	–	–	–
CC(C)(CO)NC(=O)c1cccc(C(=O)NC(C)(C)CO)c1Br	> 100	–	> 100	> 100	–	> 100	> 100	> 100	–	> 100	–	–	–	–	–	–	–	–	–
CCC(C)N1CN(c2ccccc2)C2(CCN(CCCC(=O)c3ccc(F)cc3)CC2)C1=O (stereo unspecified)	17.9	24.8	29	28.7	16.8	27.4	–	> 100	25.5	–	–	–	–	–	–	–	–	–	–
O=C(O)C1Cc2ccccc2OC1=O (stereo unspecified)	> 100	> 100	> 100	> 100	–	> 100	> 100	> 100	–	–	–	–	–	–	–	–	–	–	–
CCCCCCCCC[C@@H]1C[C@@H]2CCC3C(C(=O)OCCCCNC(=O)OCc4ccccc4)=C(C)NC(=N1)N32 (stereo partly specified)	8.06	14.9	6.66	4.84	18.9	6.97	13.7	7	–	7.08	–	–	–	–	–	–	–	–	–
CC1=NN(C(=O)c2ccccc2)C(=O)C1N=Nc1ccccc1C(=O)O (stereo unspecified)	> 100	> 27.5	> 100	> 100	> 100	–	> 100	> 100	–	> 100	–	–	–	–	–	–	–	–	–

Structure (SMILES)	TGI (HCT-15 colon) [µM]	TGI (OVCAR-3 ovarian) [µM]	TGI (SF-268 CNS) [µM]	TGI (SK-MEL-2 melanoma) [µM]	TGI (A498 renal) [µM]	TGI (M14 melanoma) [µM]	TGI (KM12 colon) [µM]	TGI (NCI/ADR-RES ovarian) [µM]	TGI (MDA-N) [µM]	TGI (HOP-92 NSCLC) [µM]	GI50 (OVCAR-3 ovarian) [µM]	GI50 (HOP-92 NSCLC) [µM]	GI50 (SF-268 CNS) [µM]	GI50 (SK-MEL-2 melanoma) [µM]	GI50 (A498 renal) [µM]	GI50 (NCI/ADR-RES ovarian) [µM]	GI50 (HCT-15 colon) [µM]	GI50 (M14 melanoma) [µM]	GI50 (KM12 colon) [µM]
COc1cc(C2c3cc4c(cc3OC(N3CCOCC3)C2C)OCO4)cc(OC)c1OC (stereo unspecified)	> 40.3	> 23	> 100	28.2	–	44.1	14	2.01	0.439	60.2	–	–	–	–	–	–	–	–	–
COc1cc(C2c3cc4c(cc3[C@@H](Nc3ccc(N5CCOCC5)cc3)C3COC(=O)[C@H]23)OCO4)cc(OC)c1O (stereo partly specified)	2.59	13.2	14.2	5.4	3.2	–	–	26.2	–	8.74	–	–	–	–	–	–	–	–	–
Cn1nc2ccc3nccc(NCCNCCCl)c3c2n1	> 100	> 100	> 100	> 100	–	> 100	> 100	–	–	> 100	–	–	–	–	–	–	–	–	–
CNc1nc(=O)c(C#N)c(-c2ccc(C)cc2)s1	> 100	> 100	–	> 100	–	> 100	> 100	> 100	> 100	> 100	–	–	–	–	–	–	–	–	–
FC(F)(F)c1nc2cc(SSc3cc4nc(C(F)(F)F)[nH]c4cc3Cl)c(Cl)cc2[nH]1	> 100	> 100	> 100	> 100	> 100	> 100	–	> 100	–	–	–	–	–	–	–	–	–	–	–
Cc1ccc(-c2nc3n(c2/C=N\N=C(N)N)CCS3)cc1	31.8	–	29.3	25.9	30.5	–	28.5	> 100	–	34	–	–	–	–	–	–	–	–	–
N/C(=N\N=C/c1cc(Cl)cc(Cl)c1O)NO	17.8	53.6	> 100	23.1	18.8	–	22.4	26.6	–	46.8	–	–	–	–	–	–	–	–	–
COc1ccc2c(c1)Cc1c-2[nH]c2cc3c(cc2c1=O)OCO3	> 100	45.9	> 100	21.8	–	51.2	38.3	–	–	48.5	–	–	–	–	–	–	–	–	–
COC(=O)C1=C2Nc3ccccc3C23CCN2C(O)C4(CC5CC67CCOC6CCN6CCC8(c9cccc(OC)c9N(C4)C58O)C67)C4OCCC4(C1)C23 (stereo unspecified)	> 100	> 100	> 100	> 100	> 100	> 100	> 100	–	> 100	87.7	–	–	–	–	–	–	–	–	–
COC(=O)C(Cc1ccccc1)NC(=O)C(CCCN=C(N)N)NC(=O)OCc1ccccc1 (stereo unspecified)	> 100	> 100	> 100	–	–	> 100	> 100	> 100	> 100	> 100	–	–	–	–	–	–	–	–	–
CC(=O)C1C(=O)C(=O)N(c2ccc([N+](=O)[O-])cc2Cl)C1=O (stereo unspecified)	> 100	> 100	> 100	> 100	–	> 100	> 100	> 100	> 100	> 100	–	–	–	–	–	–	–	–	–
CC[S+](C)c1ccc(-c2c3nc(c(-c4ccc([S+](C)CC)cc4)c4ccc([nH]4)c(-c4ccc([S+](C)CC)cc4)c4nc(c(-c5ccc([S+](C)CC)cc5)c5ccc2[nH]5)C=C4)C=C3)cc1 (stereo unspecified)	> 100	> 100	> 100	77.5	> 100	> 100	> 100	–	–	> 100	–	–	–	–	–	–	–	–	–
CC(=O)O[C@@H]1CC2[C@@H](CCC3Cc4nc5c(nc4C[C@@]32C)CC2CC[C@@H]3C(CC[C@@]4(C)C3CC[C@@H]4C(C)CCCC(C)C)[C@@]2(C)C5)C2C[C@@H]3OC4(CCC(C)CO4)C(C)[C@@H]3[C@]21C (stereo partly specified)	> 100	> 100	> 100	–	–	> 100	> 100	> 100	> 100	70	–	–	–	–	–	–	–	–	–
CN(C)C(=O)CO/N=C1/C(c2c(O)[nH]c3ccccc23)=Nc2ccccc21	> 100	> 100	> 100	> 100	–	> 100	> 100	> 100	> 100	> 100	–	–	–	–	–	–	–	–	–
CCOC(=O)c1ccc2c(=O)n3c(C(=O)OCC)ccc3c(=O)n12	> 100	> 100	> 100	> 100	> 100	> 100	> 100	> 100	> 100	–	–	–	–	–	–	–	–	–	–
C[n+]1c(-c2ccc(/C=N/Nc3n[nH]c(=S)n3N/N=C/c3ccc(-c4cn5ccccc5[n+]4C)cc3)cc2)cn2ccccc21	> 100	–	> 100	–	–	> 100	> 100	> 100	> 100	–	–	–	–	–	–	–	–	–	–
Cc1cc(O)c(/C=N/C(=O)NN)c(=O)o1	> 100	> 100	> 100	> 100	–	> 100	> 100	> 100	> 100	> 100	–	–	–	–	–	–	–	–	–
CCOC(=O)CC(=Nc1cc(C)on1)N(CC)CC	> 100	> 100	> 100	> 100	> 100	> 100	> 100	–	–	> 100	–	–	–	–	–	–	–	–	–
CC1(C)CC(=O)C2=C(C1)N(c1ccccc1)C1(O)C=CC(=O)C3=C(O)c4ccccc4C(=O)C321 (stereo unspecified)	> 100	> 100	52.1	60.9	–	> 100	86.3	> 100	–	58.5	–	–	–	–	–	–	–	–	–
Cc1noc(C)c1N=Nc1ccc2nonc2c1N	> 100	> 100	> 100	> 100	–	> 100	> 100	> 100	> 100	> 100	–	–	–	–	–	–	–	–	–
CCN(CC)CCNC(=O)c1cc2cc(NC(=O)c3cc4cc(NC(=O)c5cc6cc([N+](=O)[O-])ccc6[nH]5)ccc4[nH]3)ccc2[nH]1	> 100	> 100	> 100	> 100	> 100	> 100	> 100	> 100	–	> 100	–	–	–	–	–	–	–	–	–
OC1NC2CC3NC(O)C(O)NC3CC2NC1O (stereo unspecified)	> 100	> 100	> 100	> 100	–	> 100	> 100	> 100	> 100	> 100	–	–	–	–	–	–	–	–	–
